Values joined by “and” are separate entries in the source; they are usually repeats but may differ in a detail not shown here. Identical values can stand only once. Square brackets hold non-standard residues; d marks the D form. Peptide text beside a SMILES is read from it. β3hF = N[C@H](CC(=O)O)Cc1ccccc1
Columns and labels:
elastase [1] = experiment: Proteolytic stability of hydrogels (elastase solution on top of hydrogel); type: in vitro ADME; conditions: for time at which hydrogel changed into an opaque structure / gel degradation time (hydrogel unstable/fluid-like): elastase 60 μM in 10 mM PBS on top; for gel degradation time (hydrogel unstable/fluid-like): room temperature; for macroscopic aggregation / physical degradation: over 42 days
Experimental: (B) The proteolytic stability of the hydrogels was analyzed by placing an elastase solution (60 μM in 10 mM PBS) on top of the hydrogel. In all the stability experiments a total volume of 4 mL (gel+PBS solution with and without enzyme) was obtained. The addition of the enzyme solution on top of the hydrogel was set as the starting point of the gel-degradation experiments; B. At specific time-intervals (0 h, 24 h, 2 days, 3 days, 4 days, 5 days, 6 days, 7 days, 2 weeks, 3 weeks, etc.) the liquid portion on top of the hydrogel was removed using a pipette and the hydrogel's volume was estimated using following formula: VTotal−VLiquid portion=VHydrogel (1)
wherein VTotal is the total volume and remains at 4 mL and VLiquid portion is the volume measured of the liquid portion after each sampling interval. At each sampling interval the pH was also measured; C. A picture of the inverted glass tube, only containing the self-sustaining non-fluid-like hydrogel, was taken in order to assess the physical deformation of the hydrogel and volume-loss; D. The PBS, mQ or enzyme solution is gently replaced on top of the hydrogel using a pipette, allowing repetition of steps A-D. Between sampling-intervals the glass tubes were kept undisturbed at room temperature. The gel degradation time was defined as the period required for complete disintegration of the hydrogels into liquid under observation of the naked eye.
(C) In a next step, the stability and degradation profiles of the mixed α/β-hydrogels were investigated using this methodology. During the first hours after addition of the elastase to peptide SEQ ID NO 1 hydrogel, no apparent physical deformation was observed. The collected liquid portion (on top of the hydrogel) measured 3 mL (during the first 10 hours). […] In comparison to the α-peptide 1 hydrogel the degradation time of peptide SEQ ID NO 1 hydrogel was extended from 3.5 days to 5.5 days. However, the physical alteration of this hydrogel into an opaque structure was already observed after one day.

elastase [2] = experiment: Enzymatic degradation study of peptides in non-gelating conditions; type: in vitro ADME; conditions: peptide 350 μM, elastase 60 μM, 37° C.
Experimental: The following biodegradation experiments were performed in order to assess biostability of peptides of the invention toward elastase, a prominent enzyme present in the subcutaneous compartment.
The following buffer was used to assay the proteolytic stability of the peptides towards elastase: 10 mM PBS at pH 7.2. First, a stock solution of elastase (60 μM in 10 mM PBS) was prepared. Peptides SEQ ID NO 1, 2 and 3 and reference α-peptide SEQ ID NO 23 were subjected to the degradation study and prepared as a stock solution of 350 μM in mQ water (with a resistivity of […]). Enzymatic degradation was carried out by incubation of peptide (900 μL, 350 μM) with the enzyme (150 μL, 60 μM) at 37° C. for 7 days. To preclude any pH-dependent effects on the enzyme's activity, the pH value was kept at pH 6.9±0.5 in all degradation experiments.
The enzyme concentration was selected such that the reference α-peptide SEQ ID NO 23 was completely degraded in less than 1 hour. In case of the α-peptide SEQ ID NO 23, aliquots (70 μL) were periodically taken at 0 min, 5 min, 10 min, 15 min, 20 min and 30 min, while for the mixed α/β-peptides aliquots (70 μL) were taken at 0 min, 20 min, 30 min, 1 h, 2 h, 5 h, 1 day, 2 days, 3 days, 4 days, 5 days and 6 days. 5 μL of 25% AcOH in water (v/v) were added and the degradation was monitored by HPLC analysis. After just 30 min of exposure to elastase, the reference α-peptide SEQ ID NO 23 was completely degraded. The enzymatic degradation of mixed α/β-peptides SEQ ID NO 1, SEQ ID NO 2 and SEQ ID NO 3 was remarkably slower and lasted several days. Mixed α/β-peptides SEQ ID NO 1 and SEQ ID NO 2 were completely consumed after 6 days whilst mixed α/β-peptide SEQ ID NO 1, SEQ ID NO 3 was degraded after 3 days.

[3] = Peptide self-assembly / gelation conditions; type: physicochemical; conditions: TFA salt
Experimental: Peptide self-assembly was analyzed in i) a PBS solution (10 mM), ii) a PBS/mQ mixture (1:1 v:v, mQ water with a resistivity of […]) or iii) a NaCl aqueous solution (150 mM). The TFA salt of reference peptide SEQ NO. 23 (1 mg) was dissolved in 50 μl mQ water, followed by the addition of 50 μl PBS solution. This mixture was left to rest overnight, resulting in a 1% w/v hydrogel. The TFA salt of mixed α/β-peptides SEQ ID NO 1 and SEQ ID NO 2 (2 mg) was dissolved in mQ (100 μL) and PBS/mQ mixture (100 μL), respectively. […] The TFA salt of mixed α/β-peptide SEQ ID NO 3 (3 mg) was dissolved in PBS (100 μL) to probe gelation. All self-assembled gels were analyzed by circular dichroism (CD) and Fourier transform infrared (FT-IR) spectroscopy, as well as cryogenic transmission electron microscopy (Cryo-TEM).
(SEQ ID NO:22 (=10-mer)), 100 μl mQ water was added to 2 mg of TFA-salt of pure peptide, then vortexed and sonicated. As a result, a transparent self-supporting gel was formed immediately. A gelation condition of 2 w/v % in mQ water was found.
for H-Fβ^2hFEFQFK-NH2 (SEQ ID NO:19), 100 μl of PBS was added to 2 mg of TFA-salt of pure peptide, then vortexed and sonicated. After overnight resting, a self-supporting gel was formed. A gelation condition of 2 w/v % in PBS was determined.

[4] = Erosion / general stability of hydrogel without enzyme (PBS on top); type: physicochemical
Experimental: (A). The peptide hydrogel (1 mL) was prepared in a 10 mL glass tube using the appropriate gelation conditions (see peptide self-assembly in example 2). After leaving the hydrogel to rest overnight the degradation evaluation was started. First, general stability (without the incubation of an enzyme) was evaluated for α-peptide SEQ ID NO 23: 3 mL of mQ water was gently placed on top of the hydrogel and erosion experiments were performed by placing 3 mL PBS solution (10 mM) on top of the hydrogel to assess the hydrogels macroscopic decay in time. […] After 24 hours there was a small loss in volume (0.1 mL) of the formed hydrogel and the aggregation remained visible at the hydrogel surface. The PBS fraction was recollected and measured as 3.1 mL, in agreement with the 0.1 mL volume loss of the hydrogel. After 4 days the hydrogel was completely disintegrated into opaque aggregated pieces sticking to the bottom of the glass tube. The collected solution was measured to be 3.8 mL.

[5] = 3 mL PBS on top, after 24 hours

| collected liquid portion on top of the hydrogel (elastase [1]; hydrogel with elastase, during the first 10 hours) [mL] | time at which hydrogel changed into an opaque structure (elastase [1]) | gel degradation time (hydrogel unstable/fluid-like) (elastase [1]) [days] | time to complete degradation by elastase (elastase [2]; HPLC) | hydrogel volume relative to original volume (elastase [1]; hydrogel with elastase, after 35 days) | physical stability: time without observable volume loss (elastase [1]; hydrogel with elastase) | hydrogel concentration obtained ([3]; 50 μl mQ water + 50 μl PBS, rest overnight) [% w/v] | time of gelation (self-supporting gel formed) ([3]; at its own gelation condition) | hydrogel volume ([4]; 1 mL hydrogel, 3 mL PBS 10 mM on top, after 2 hours) [mL] | PBS fraction recollected [4, 5] [mL] | loss in volume of hydrogel [4, 5] [mL] | collected solution ([4]; 3 mL PBS on top, after 4 days) [mL] | time to complete disintegration of hydrogel ([4]; 3 mL PBS on top, no enzyme) [days] | time to complete degradation by elastase (elastase [2]; enzyme concentration selected for this) | Molecule | macroscopic aggregation / physical degradation (elastase [1]; hydrogel with elastase) |
| --- | --- | --- | --- | --- | --- | --- | --- | --- | --- | --- | --- | --- | --- | --- | --- |
| 3 | one | 5.5 | 6 days and 3 days |  |  |  |  |  |  |  |  |  |  | NCCCC[C@H](NC(=O)[C@H](Cc1ccccc1)NC(=O)C[C@H](Cc1ccccc1)NC(=O)[C@H](CCC(N)=O)NC(=O)[C@H](Cc1ccccc1)NC(=O)C[C@H](Cc1ccccc1)NC(=O)[C@H](CCC(=O)O)NC(=O)[C@@H](N)Cc1ccccc1)C(=O)O [SEQ ID NO 1, H-Phe-Glu-β^3hPhe-Phe-Gln-β^3hPhe-Phe-Lys-OH] (H-FE[β3hF]FQ[β3hF]FK-OH) |  |
|  |  |  | 6 days | approximately half |  |  |  |  |  |  |  |  |  | NCCCC[C@H](NC(=O)[C@H](Cc1ccccc1)NC(=O)C[C@H](Cc1ccccc1)NC(=O)[C@H](CCC(N)=O)NC(=O)[C@H](Cc1ccccc1)NC(=O)C[C@H](Cc1ccccc1)NC(=O)[C@H](CCC(=O)O)NC(=O)[C@@H](N)Cc1ccccc1)C(N)=O [SEQ ID NO 2, H-Phe-Glu-β^3hPhe-Phe-Gln-β^3hPhe-Phe-Lys-NH2] (H-FE[β3hF]FQ[β3hF]FK-NH2) | no macroscopic aggregation was observed |
|  |  |  | 3 days |  | over 42 days |  |  |  |  |  |  |  |  | NCCCC[C@H](NC(=O)[C@H](Cc1ccc(O)cc1)NC(=O)C[C@H](Cc1ccccc1)NC(=O)[C@H](CCC(N)=O)NC(=O)[C@H](Cc1ccc(O)cc1)NC(=O)C[C@H](Cc1ccccc1)NC(=O)[C@H](CCC(=O)O)NC(=O)[C@@H](N)Cc1ccccc1)C(N)=O [SEQ ID NO 3, H-Phe-Glu-β^3hPhe-Tyr-Gln-β^3hPhe-Tyr-Lys-NH2] (H-FE[β3hF]YQ[β3hF]YK-NH2) | no significant physical degradation nor aggregation |
|  | 2 days | 3.5 | 0.0208 days |  |  | 1 | overnight | 1 | 3.1 | 0.1 | 3.8 | 4 | less than 1 hour | H-FEFQFK-OH [SEQ ID NO 23, H-FEFQFK-OH, reference compound] |  |

— patent US10526371B2, “Hydrogel-forming peptides” (Universiteit Gent, priority 2015, dated 2020)
